Test results reported in patent publication US5969094A, “Anti-paramyxovirus screening method and vaccine” (Emory University, priority 1996, dated 1999).
pEC50: −log10 of the molar value.

Key:
HIV-1 = details: Wild et al. 1994; cited from earlier work
PI2 virus [1] = test: Plaque size reduction on Vero cells, peptide in agar overlay; format: cell-based, parainfluenza virus type 2; details: 80 μM peptide in agar overlay after 1 h absorption; control cells 3 mm; three days
Protocol: FIGS. 11A and 11B Plaque size reduction by F peptides. Plaque assay was performed on the Vero cells using PI2 virus. After 1 h absorption at 37° C., inoculum was removed and cells overlaid with a 1:1 mixture of 2% white agar with 2XDMEM containing 2% FBS (A) without addition of F peptide, or (B) with addition of 80 μM of 2F1B34 in the overlay agar. Three days after overlaying, the agar was removed and the monolayer of cells was stained with crystal violet.
As another indication of a reduction in spread of virus under condition of multiple cycle replication, the effect of the peptides on plaque size was determined.

PI2 virus [2] = test: Inhibition of plaque formation on Vero cells (viral entry), PI2; format: cell-based, parainfluenza virus type 2
Protocol: Inhibition of plaque formation. A series of 2-fold dilutions of F peptides together with appropriately diluted PI2 or PI3 virus were added to monolayers of Vero cells. After 1 h incubation at 37° C., the inoculum was removed and overlaid with 2% white agar mixed at 1:1 ratio with 2XDMEM containing 2% FBS. Three days after overlying, red agar mixed at a 1:1 ratio with 2XDMEM containing 2% FBS was overlaid to stain the cells. Plaque numbers were counted one day after neutral red staining and recorded. The Reed-Muench method of estimating 50% endpoint [Welkos, S. et al., (1994) Methods in Enzymology. 235:29-39] was used to calculate the F peptide 50% effective concentration (EC50) value.
F peptides inhibit viral spread. To determine whether the F peptide interferes with the viral entry process, a plaque assay was performed by inoculating cells with virus and peptide together at 37° C. for 1 h, and then overlaying with agar without the addition of peptide. At 10^4 dilution of the PI2 virus stock, 80 μM of the 2F1B34 peptide (SEQ ID NO:21) caused an 80% reduction in number of plaques. Similarly, at 10^5 dilution of the PI3 virus stock, 100 μM of the 3F1B35 peptide (SEQ ID NO:23) caused a 70% reduction in number of plaques. Furthermore, the reduction in the number of viral plaques was correlated with increasing concentration of peptide incubated with the virus. […]

PI2 virus [3] = test: Surface immunofluorescence of PI2 antigen on infected HeLa-T4 cells (viral spread); format: cell-based, parainfluenza virus type 2; details: low m.o.i. infection, incubated with peptide
Protocol: Surface immunofluorescence. Indirect immunofluorescence was performed as described by Paterson et al. 1989. In general, HeLa-T4 cells were grown on glass coverslips in 24-well plates and infected with wild-type PI2 virus as described above. At indicated times post infection, cells were washed with ice-cold PBS three times before being fixed with 1% paraformaldehyde in PBS. Rabbit anti-PI2 antibody was added onto cell monolayers, and cells were then incubated at 4° C. for 30 min. Cells were washed with ice-cold PBS three times, and then goat anti-rabbit immunoglobulin G fluorescein-conjugated antibody (Southern Biotechnology Associates, Inc., Birmingham, Ala.) was added and was then incubated at 4° C. for 30 min. Cell surface fluorescence was examined by fluorescence microscopy with a Nikon Optiphot microscope.
To further confirm that the F peptides inhibit viral spread, we examined the distribution of infected cells by surface immunofluorescence at intervals post low m.o.i. infection in the presence or absence of F peptides.

PI2 virus [4] = test: Inhibition of virus production (released virus titer) in HeLa-T4 cells, PI2; format: cell-based, parainfluenza virus type 2; details: 48 h post infection; m.o.i. 0.1; 80 μM peptide (FIG. 10); culture supernatant
PI2 virus [5] = format: cell-based, parainfluenza virus type 2
PI2F + PI2HN = molecular target: T1, PI2F + PI2HN (Human parainfluenza 2 virus, UniProt P25467); format: cell-based, parainfluenza virus type 2; details: 18 hr
T1 construct: expressed in transfected cells; host or cells: HeLa-T4 cells infected with vTF7.3
T1 sequence (P25467 107-551 limits assumed): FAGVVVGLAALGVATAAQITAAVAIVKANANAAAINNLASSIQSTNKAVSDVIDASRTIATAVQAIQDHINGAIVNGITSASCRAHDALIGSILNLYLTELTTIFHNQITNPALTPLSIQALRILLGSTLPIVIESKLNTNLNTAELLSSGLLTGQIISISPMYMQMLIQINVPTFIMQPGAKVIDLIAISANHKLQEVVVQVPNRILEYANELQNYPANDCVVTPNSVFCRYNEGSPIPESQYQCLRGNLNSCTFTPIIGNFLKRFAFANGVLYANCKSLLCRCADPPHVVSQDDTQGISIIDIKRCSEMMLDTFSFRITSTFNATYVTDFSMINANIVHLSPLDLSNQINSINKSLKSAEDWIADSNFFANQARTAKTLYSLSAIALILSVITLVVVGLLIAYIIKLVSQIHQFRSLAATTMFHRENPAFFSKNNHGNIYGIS
T1 sequence (P25467 24-106 partner limits assumed): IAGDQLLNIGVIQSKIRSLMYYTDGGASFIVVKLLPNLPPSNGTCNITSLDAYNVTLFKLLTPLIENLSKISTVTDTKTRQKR

## enfuvirtide
HIV-1
  potency against cell-cell fusion versus infection by cell-free virus: more potent inhibitor of cell-cell fusion than of infection by cell-free virus

## 2F1B34: PI2F peptide from the beginning of the transmembrane domain to include the entire heptad repeat B region (DLSNQINSINKSLKSAEDWIADSNFFANQARTAK)
PI2 virus [1]
  plaque size (diameter): 1.5 mm
PI2 virus [2]; 80 μM peptide with virus 1 h at 37° C., 10^4 dilution of the PI2 virus stock, overlay without peptide
  reduction in number of plaques, PI2: 80%
PI2 virus [2]; Vero cells, Reed-Muench method, read-out: 50% effective concentration (EC50), plaque number, PI2
  pEC50: 4.27
PI2 virus [3]
  cells expressing PI2 antigen on the surface at 18 h: only few cells were expressing PI2 antigen
  numbers of cells showing PI2 antigen expression on the surface at 24 h and 48 hpi: no increase in numbers of cells showing antigen expression
PI2 virus [4]
  decrease in the viral titer, PI2: 15 fold
PI2 virus [5]; incubated with peptide, concentration not given
  syncytium formation / inhibition of cell fusion in PI2 infected HeLa-T4 cells (in words): no syncytia were seen
PI2 virus [5]; peptide concentration as low as 80 μM, 24 h post infection, m.o.i. 0.1
  inhibition of PI2 virus-induced cell fusion: completely inhibited
PI2F + PI2HN
  inhibition of cell fusion induced by coexpression of PI2 F plus PI2 HN: completely inhibit
